Reference: US9669003B2, “Use of flavone and flavanone derivatives in preparation of sedative and hypnotic drugs” (priority 2012, dated 2017)
Marks after values point to notes of the source that are not given here.

Columns and labels:
Type in all cases: in vivo
[1] = system: Kunming mice; experiment: Influence on hypnosis effect with pentobarbital sodium doses at the threshold (50 mg/kg i.p.); conditions: pentobarbital sodium 50 mg/kg i.p. 60 min later, x ± s, n = 10
Outline: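 Pentobarbital sodium (0.3%, 50 mg/kg i.p.) injected 60 min after a single intragastric dose (25, 50, 100 mg/kg, 0.5% CMC-Na vehicle) in Kunming mice, 10 per group, sexes balanced. Onset and length of sleep (righting reflex lost over 1 min) analysed by ANOVA; sleeping incidence by χ2 test.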

[2] = system: Kunming mice; experiment: Influence on hypnosis effect with pentobarbital sodium doses below the threshold (25 mg/kg i.p.); conditions: pentobarbital sodium 25 mg/kg i.p. 60 min later, sleep observed in 30 min, n = 10
Outline: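 Percentage of mice sleeping within 30 min after subthreshold pentobarbital sodium (25 mg/kg i.p.), defined by loss of righting reflex over 1 min, analysed by χ2. Compound in 0.5% CMC-Na given intragastrically at 25/50/100 mg/kg 60 min before; groups of 10 Kunming mice, both sexes.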

[3] = system: Kunming mice; experiment: Influence on autonomic activity of normal mice (ZIL-2 mice autonomic activity meter, counts within 10 min); conditions: intragastric, x ± s, n = 10; for Times of activities in 1 h after drug administration/10 min: 1 h after administration; for Times of activities in 2 h after drug administration/10 min: 2 h after administration; for Times of activities in 24 h after drug administration/10 min: 24 h after administration
Outline: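 Activity counts during a 10-min window were taken at 1, 2 and 24 h after dosing in groups of 10 mixed-sex Kunming mice. Compounds were given in 0.5% CMC-Na at 25, 50 or 100 mg/kg. Statistics used Levene's homogeneity test, ANOVA and Dunnett's multiple comparisons.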

[4] = 25 mg/kg intragastric single dose
[5] = 50 mg/kg intragastric single dose
[6] = 100 mg/kg intragastric single dose
[7] = test drug 25 mg/kg intragastric single dose
[8] = test drug 50 mg/kg intragastric single dose
[9] = test drug 100 mg/kg intragastric single dose

| Compound | duration of sleep [1, 4] | time to sleep [1, 4] | duration of sleep [1, 5] | time to sleep [1, 5] | duration of sleep [1, 6] | time to sleep [1, 6] | Number of sleeping animals [2, 7] | rate of sleeping (%) [2, 7] | Number of sleeping animals [2, 8] | rate of sleeping (%) [2, 8] | Number of sleeping animals [2, 9] | rate of sleeping (%) [2, 9] | Times of activities in 1 h after drug administration/10 min ([3]; 25 mg/kg) | Times of activities in 2 h after drug administration/10 min ([3]; 25 mg/kg) | Times of activities in 24 h after drug administration/10 min ([3]; 25 mg/kg) | Times of activities in 1 h after drug administration/10 min ([3]; 50 mg/kg) | Times of activities in 2 h after drug administration/10 min ([3]; 50 mg/kg) | Times of activities in 24 h after drug administration/10 min ([3]; 50 mg/kg) | Times of activities in 1 h after drug administration/10 min ([3]; 100 mg/kg) | Times of activities in 2 h after drug administration/10 min ([3]; 100 mg/kg) | also measured |
| --- | --- | --- | --- | --- | --- | --- | --- | --- | --- | --- | --- | --- | --- | --- | --- | --- | --- | --- | --- | --- | --- |
| CC=Cc1cc(I)cc2c1OC(c1cccc(C(=O)O)c1)CC2=O (stereo not drawn) [Example 60] | 46.64 ± 22.53 min | 4.13 ± 1.59 min | 58.37 ± 18.85 min | 3.62 ± 1.74 min | 73.03 ± 19.21 min | 2.32 ± 1.17 min | 5 | 50** % | 6 | 60** % | 9 | 90*** % | 243.8 ± 73.8 /10 min | 238.9 ± 78.3 /10 min | 340.4 ± 76.8 /10 min | 143.3 ± 64.7 /10 min | 131.8 ± 62.3 /10 min | 327.6 ± 75.3 /10 min | 116.9 ± 33.8 /10 min | 109.9 ± 39.2 /10 min | Times of activities in 24 h after drug administration/10 min ([3]; 100 mg/kg): 293.4 ± 84.9 /10 min |
| CCCc1ccc(C2CC(=O)c3c(O)cc([N+](=O)[O-])cc3O2)cc1OC (stereo not drawn) [Example 61] | 38.44 ± 15.12 min | 4.42 ± 1.43 min | 58.53 ± 27.42 min | 3.92 ± 1.31 min | 58.47 ± 24.40 min | 3.79 ± 1.44 min | 5 | 50** % | 6 | 60** % | 8 | 80*** % | 317.3 ± 50.1 /10 min | 289.4 ± 40.2 /10 min | 301.9 ± 77.5 /10 min | 295.1 ± 41.9 /10 min | 250.7 ± 42.8 /10 min | 300.2 ± 91.3 /10 min | 287.1 ± 45.9 /10 min | 221.5 ± 45.8 /10 min | Times of activities in 24 h after drug administration/10 min ([3]; 100 mg/kg): 317.9 ± 80.3 /10 min |
| COc1ccc(C2CC(=O)c3c(O)cccc3O2)cc1O (stereo not drawn) [Example 62] | 34.29 ± 22.83 min | 4.87 ± 1.96 min | 57.24 ± 17.30 min | 4.21 ± 1.72 min | 65.03 ± 32.12 min | 3.78 ± 1.90 min | 3 | 30% | 4 | 40* % | 6 | 60** % | 279.2 ± 45.4 /10 min | 264.9 ± 44.7 /10 min | 309.0 ± 81.9 /10 min | 237.4 ± 41.9 /10 min | 242.6 ± 49.2 /10 min | 297.2 ± 69.5 /10 min | 125.6 ± 32.8 /10 min | 170.3 ± 35.2 /10 min | Times of activities in 24 h after drug administration/10 min ([3]; 100 mg/kg): 279.4 ± 86.3 /10 min |
